Assay results published in publication PMC9667936, “Functional mapping of the 14-3-3 hub protein as a guide to design 14-3-3 molecular glues” (Chemical Science, 2022).
Where a SMILES comes first, the peptide text is derived from it. [ ]: non-standard residue; d: D form. The star is where a group is joined. ξ: configuration not given here. FITC = O=C1OC2(c3ccc(O)cc3Oc3cc(O)ccc32)c2ccc(NC(=S)*)cc21; Phe(4-NO2) = N[C@@H](Cc1ccc([N+](=O)[O-])cc1)C(=O)O; ξAla(4-thiazolyl) = NC(Cc1cscn1)C(=O)O; pS = N[C@@H](COP(=O)(O)O)C(=O)O; β3hS = N[C@@H](CO)CC(=O)O; Nva = CCC[C@H](N)C(=O)O; βAla = NCCC(=O)O

Biological target: T1, 14-3-3γ (Homo sapiens, UniProt P61981)
T1 construct: made in house; host or cells: E. coli NiCo21 (DE3)
T1 sequence (P61981 1-247): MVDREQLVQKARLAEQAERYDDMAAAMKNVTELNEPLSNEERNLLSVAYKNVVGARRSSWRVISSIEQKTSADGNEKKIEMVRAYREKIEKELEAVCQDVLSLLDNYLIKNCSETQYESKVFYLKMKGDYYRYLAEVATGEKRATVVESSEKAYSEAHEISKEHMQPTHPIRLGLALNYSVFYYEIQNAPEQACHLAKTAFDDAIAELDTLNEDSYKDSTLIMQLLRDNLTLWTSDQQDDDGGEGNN
Assay: Fluorescence anisotropy (FA) binary binding study: 14-3-3 titrated to fluorescein-labelled peptide
Conditions: for individual ΔΔG of removed residue: ΔG relative to the previously truncated peptide; for Affinity Kd / Kd: Table S4, point-mutated peptides; for Affinity Kd: 10 nM FITC-labelled peptide; for Kd: 14-3-3 titrated to 10 nM FITC-labelled peptide, HEPES pH 7.4, room temperature, 4PL fit, read-out: Affinity Kd
Description: 14-3-3γ protein expression (FP/ITC experiments)
(§1) A pPROEX HTb expression vector encoding the human 14-3-3 protein gamma (14-3-3γ) with an N-terminal his6-tag was transformed by heat shock into NiCo21 (DE3) competent cells. Single colonies were cultured in 50 mL LB medium (100 µg/mL ampicillin). After overnight incubation at 37 °C, cultures were transferred to 2 L TB media (100 µg/mL ampicillin, 1 mM MgCl2) and incubated at 37 °C until an OD600 nm of 0.8-1.2 was reached. Protein expression was then induced with 0.4 mM isopropyl-β-d-thiogalactoside (IPTG), and cultures were incubated overnight at 18 °C. Cells were harvested by centrifugation (8600 rpm, 20 minutes, 4 °C) and resuspended in lysis buffer (50 mM Hepes, pH 8.0, 300 mM NaCl, 12.5 mM imidazole, 5 mM MgCl2, 2 mM βME) containing cOmplete™ EDTA-free Protease Inhibitor Cocktail tablets (1 tablet/100 ml lysate) and benzonase (1 µl/100 ml). After lysis using a C3 Emulsiflex-C3 homogenizer (Avestin), the cell lysate was cleared by centrifugation (20000 rpm, 30 minutes, 4 °C) and purified using Ni2+-affinity chromatography (Ni-NTA superflow cartridges, Qiagen).
Typically two 5 mL columns (flow 5 mL/min) were used for a 2 L culture in which the lysate was loaded on the column washed with 10 CV wash buffer (50 mM Hepes, pH 8.0, 300 mM NaCl, 25 mM imidazole, 2 mM βME) and eluted in several fractions (2-4 CV) of elution buffer (50 mM Hepes, pH 8.0, 300 mM NaCl, 250 mM imidazole, 2 mM βME). Fractions containing the 14-3-3 protein were combined and dialyzed into 25 mM HEPES pH 8.0, 100 mM NaCl, 10 mM MgCl2, 500 µM TCEP. Finally, the protein was concentrated to ∼60 mg/mL, analyzed Q-Tof LC/MS, and aliquots were flash-frozen for storage at […]
as §1, with “sigma truncated after T231 (14-3-3σΔc) and” for “gamma (14-3-3γ)”, “tablet/ 100” for “tablet/100”, “µl/ 100” for “µl/100”, “ml).” for “ml). After lysis using a C3 Emulsiflex-C3 homogenizer (Avestin), the cell lysate was cleared by centrifugation (20000 rpm, 30 minutes, 4 °C) and purified using Ni2+-affinity chromatography (Ni-NTA superflow cartridges, Qiagen).”
After lysis using a C3 Emulsiflex-C3 homogenizer (Avestin), the cell lysate was cleared by centrifugation (20000 rpm, 30 minutes, 4 °C) and purified using Ni2+-affinity chromatography (Ni-NTA superflow cartridges, Qiagen). Typically two 5 mL columns were used for a 2 L culture in which the lysate was loaded on the column washed with 10 CV wash buffer (50 mM Hepes, pH 8.0, 300 mM NaCl, 25 mM imidazole, 2 mM βME) and eluted with several fractions (2-4 CV) of elution buffer (50 mM Hepes, pH 8.0, 300 mM NaCl, 250 mM imidazole, 2 mM βME). Fractions containing the 14-3-3 protein were combined and dialyzed into 25 mM HEPES pH 8.0, 200 mM NaCl, 10 mM MgCl2, 2 mM βME. In addition, 1 mg TEV was added for each 100 mg purified protein to remove the purification tag. The cleaved sample was then again loaded on a 10 mL Ni-NTA column to separate the cleaved product from the expression tag and residual uncleaved protein. The flowthrough was loaded on a Superdex 75 pg 16/60 size exclusion column (GE Life Sciences) using 25 mM HEPES, 100 mM NaCl, 10 mM MgCl2, 500 μM TCEP (adjusted to pH=8.0) as running buffer. Fractions containing the 14-3-3 protein were pooled and concentrated to ∼60 mg/mL, analyzed Q-Tof LC/MS, and aliquots were flash-frozen for storage at −80 […]
The peptides 1 and 2a-d were synthesized on 50 µmol scale on a Rink amide MBHA resin […]

[1] = Table S2, FA KD of peptide divided by KD of previous (one amino acid longer) peptide, mean of n = 3
[2] = Table S2, KD / KD of previous (one amino acid longer) peptide, replicate 1
[3] = Table S2, KD / KD of previous (one amino acid longer) peptide, replicate 2
[4] = Table S2, KD / KD of previous (one amino acid longer) peptide, replicate 3
[5] = Table S2, calculated from FA KD, mean of n = 3
[6] = Table S2, from FA KD, replicate 1
[7] = Table S2, from FA KD, replicate 2
[8] = Table S2, from FA KD, replicate 3
[9] = Table S2, ΔG minus ΔG of previous peptide, FA, replicate 1
[10] = Table S2, ΔG minus ΔG of previous peptide, FA, replicate 2
[11] = Table S2, ΔG minus ΔG of previous peptide, FA, replicate 3
[12] = Table S2, ΔG of peptide minus ΔG of previous (one amino acid longer) peptide, FA, mean of n = 3
[13] = Table S4, FA Kd / Kd of 1, replicate 1
[14] = Table S4, FA Kd / Kd of 1, replicate 2
[15] = Table S4, FA Kd / Kd of 1, replicate 3
[16] = Table S4, FA Kd of peptide divided by Kd of 1, mean of n = 3
[17] = Table S4, calculated from FA Kd, mean of n = 3
[18] = Table S4, from FA Kd, replicate 1
[19] = Table S4, from FA Kd, replicate 2
[20] = Table S4, from FA Kd, replicate 3
[21] = Table S4, ΔG minus ΔG of 1, FA, replicate 1
[22] = Table S4, ΔG minus ΔG of 1, FA, replicate 2
[23] = Table S4, ΔG minus ΔG of 1, FA, replicate 3
[24] = Table S4, ΔG of peptide minus ΔG of 1, FA, mean of n = 3

Row | Structure (SMILES) | individual ΔΔG of removed residue (FA) | Fold change to previous [1] | Fold change to previous [2] | Fold change to previous [3] | Fold change to previous [4] | ΔG [5] | ΔG [6] | ΔG [7] | ΔG [8] | ΔΔG (to previous) [9] | ΔΔG (to previous) [10] | ΔΔG (to previous) [11] | ΔΔG (to previous) [12] | Affinity Kd (FA, replicate 1) | Affinity Kd (FA, replicate 2) | Affinity Kd (FA, replicate 3) | Kd (FA, mean of n = 3) | Fold change to 1 [13] | Fold change to 1 [14] | Fold change to 1 [15] | other results
1 | C[C@H](NC(=O)[C@H](CCCCN)NC(=O)[C@H](Cc1ccc([N+](=O)[O-])cc1)NC(=O)CCNC(=O)C[C@H](CO)NC(=O)[C@H](Cc1ccc([N+](=O)[O-])cc1)NC(=O)[C@H](COP(=O)(O)O)NC(=O)C(N)Cc1cscn1)C(=O)N[C@@H](CCCCNC(=S)Nc1ccc2c(c1)C(=O)OC21c2ccc(O)cc2Oc2cc(O)ccc21)C(N)=O (stereo partly drawn) [2c] (H-[ξAla(4-thiazolyl)][pS][Phe(4-NO2)][β3hS][βAla][Phe(4-NO2)]KAK(FITC)-NH2) | only minor energy contributions | 0,53 | 0,51 | 0,53 | 0,56 | -9,90 kcal/mol | -9,93 kcal/mol | -9,88 kcal/mol | -9,88 kcal/mol | -0,40 kcal/mol | -0,38 kcal/mol | -0,34 kcal/mol | -0,37 kcal/mol | – | – | – | – | – | – | – | –
2 | C[C@H](NC(=O)[C@H](CCCCN)NC(=O)[C@H](Cc1ccc([N+](=O)[O-])cc1)NC(=O)CCNC(=O)C[C@H](CO)NC(=O)[C@H](Cc1ccc([N+](=O)[O-])cc1)NC(=O)[C@@H](N)COP(=O)(O)O)C(=O)N[C@@H](CCCCNC(=S)Nc1ccc2c(c1)C(=O)OC21c2ccc(O)cc2Oc2cc(O)ccc21)C(N)=O [2d] (H-[pS][Phe(4-NO2)][β3hS][βAla][Phe(4-NO2)]KAK(FITC)-NH2) | 2.2 kcal/mol | 43,23 | 40,69 | 45,81 | 43,18 | -7,67 kcal/mol | -7,74 kcal/mol | -7,61 kcal/mol | -7,65 kcal/mol | 2,19 kcal/mol | 2,26 kcal/mol | 2,23 kcal/mol | 2,23 kcal/mol | – | – | – | – | – | – | – | fold change in binding affinity on truncation (FA KD relative to the previous (one amino acid longer) peptide): 43 fold; cumulative ΔΔG of truncating the entire N- or C-terminus (FA, relative to peptide 1 (2d: entire N-terminus; 2i: entire C-terminus)): 2.9 kcal/mol; ΔΔG N-term (cumulative, whole N-terminus removed) (Table S2, N-term = 2d relative to 1, FA, mean of n = 3): 2,86 kcal/mol; ΔΔG N-term (cumulative) (Table S2, N-term = 2d relative to 1, FA, replicate 1): 2,88 kcal/mol; ΔΔG N-term (cumulative) (Table S2, N-term = 2d relative to 1, FA, replicate 2): 2,94 kcal/mol; ΔΔG N-term (cumulative) (Table S2, N-term = 2d relative to 1, FA, replicate 3): 2,75 kcal/mol
3 | CCC[C@H](NC(=O)[C@H](N)CCCCN)C(=O)N[C@@H](Cc1ccc([N+](=O)[O-])cc1)C(=O)N[C@@H](C)C(=O)N[C@@H](COP(=O)(O)O)C(=O)N[C@@H](Cc1ccc([N+](=O)[O-])cc1)C(=O)N[C@@H](CO)CC(=O)NCCC(=O)N[C@@H](Cc1ccc([N+](=O)[O-])cc1)C(=O)N[C@@H](CCCCN)C(N)=O [3a] (H-[dK][Nva][Phe(4-NO2)]A[pS][Phe(4-NO2)][β3hS][βAla][Phe(4-NO2)]K-NH2; N-terminus and C-terminus assumed) | – | – | – | – | – | – | – | – | – | – | – | – | – | 100 nM | 42 nM | 72 nM | 71 nM | 1.9 | 0.6 | 1.0 | ΔΔG of point mutation (FA) (FA, relative to 1, mean ± SD, SD): 0.0 ± 0.4 kcal/mol; Fold change to 1 [16]: 1.2; ΔG [17]: -9.8 kcal/mol; ΔG [18]: -9.5 kcal/mol; ΔG [19]: -10.1 kcal/mol; ΔG [20]: -9.7 kcal/mol; ΔΔG to 1 [21]: 0.4 kcal/mol; ΔΔG to 1 [22]: -0.3 kcal/mol; ΔΔG to 1 [23]: 0.0 kcal/mol; ΔΔG to 1 [24]: 0.0 kcal/mol
4 | CCC[C@H](NC(=O)[C@H](N)CCCCN)C(=O)N[C@@H](Cc1ccc([N+](=O)[O-])cc1)C(=O)NC(Cc1cscn1)C(=O)N[C@@H](COP(=O)(O)O)C(=O)N[C@@H](Cc1ccc(O)cc1)C(=O)N[C@@H](CO)CC(=O)NCCC(=O)N[C@@H](Cc1ccc([N+](=O)[O-])cc1)C(=O)N[C@@H](CCCCN)C(N)=O (stereo partly drawn) [4a] (H-[dK][Nva][Phe(4-NO2)][ξAla(4-thiazolyl)][pS]Y[β3hS][βAla][Phe(4-NO2)]K-NH2; N-terminus and C-terminus assumed) | – | – | – | – | – | – | – | – | – | – | – | – | – | 47 nM | 41 nM | 63 nM | 50 nM | 0.9 | 0.6 | 0.9 | Fold change to 1 [16]: 0.8; ΔG [17]: -10.0 kcal/mol; ΔG [18]: -10.0 kcal/mol; ΔG [19]: -10.1 kcal/mol; ΔG [20]: -9.8 kcal/mol; ΔΔG to 1 [21]: -0.1 kcal/mol; ΔΔG to 1 [22]: -0.3 kcal/mol; ΔΔG to 1 [23]: -0.1 kcal/mol; ΔΔG to 1 [24]: -0.2 kcal/mol
